Reference: US8937090B2, “Parakeratosis inhibitor, pore-shrinking agent and external composition for skin” (Shiseido Company, Ltd., priority 2005, dated 2015)

Assays:
[1] = system: hairless mouse (HR-1); assay: Parakeratosis-inhibiting effect test (oleic acid applied to back of hairless mouse; visual rough skin evaluation and parakeratosis value); type: in vivo; settings: for parakeratosis-inhibiting effect: in words, summary of Table 1; for Visual evaluation (average of four animals): rough skin score, control = 2.0, no skin roughness = 0.0, 3 days application after 10 mass % oleic acid; for Parakeratosis value (average of four animals): scale 1.0 to 3.0, higher = parakeratosis advanced, control 2.0
Protocol: Aqueous solutions (containing 30 mass % of ethanol) of 3 mass % of a β-alanine derivative or salt thereof were prepared mainly as the evaluation sample. The pH was regulated by hydrochloric acid or sodium hydroxide so as to be 7.0 to 7.5. When sample solubility was low, the solution was prepared accordingly.
100 μL of 10 mass % oleic acid solution (solvent: ethanol) were applied to the back of a hairless mouse (HR-1; Hoshino Laboratory Animals). Then the sample solution (β-alanine derivative, and the like) was applied 100 μL at a time. This procedure was continued for three days. […] At the same time, the stratum corneum at the back of the hairless mouse was peeled off with tape, the nuclei were stained by hematoxylin, and the degree of parakeratosis was observed and evaluated by a parakeratosis value within a range of 1.0 to 3.0 (in 0.25 increments).

[2] = system: panel of 20 women; assay: Sensory irritation tests; type: in vivo, human; settings: for sensory irritation: in words, summary of Table 4; for Evaluation (sensory irritation, class of average rating): 1 mL to cheek, rated for ten minutes
Protocol: 1 mL of a control aqueous solution and the sample aqueous solution prepared in Example 1 were applied using a cotton swab to the left or right cheek, respectively, of each member of a panel of 20 women, and the irritating sensation was evaluated every 30 seconds for ten minutes beginning immediately after application, whereby a final evaluation was reported. The evaluation of the irritating sensation was made based on the following four levels of rating criteria, and the average rating was calculated, whereby the average was classified by the following criteria.
3: Continuation is not possible because of extremely strong irritation, such as tingling sensation, burning sensation, stinging sensation, itching, and the like.
2: Intolerable because of strong irritation, such as tingling sensation, burning sensation, stinging sensation, itching, and the like.
1: Tolerable, but with slight irritation such as tingling sensation, burning sensation, stinging sensation, itching, and the like.
0: Not particularly irritating.
(Evaluation Criteria) • A: average rating of less than 0.2 • B: average rating of from 0.2 to less than 1.0 • C: average rating of from 1.0 to less than 2.0 • D: average rating of 2.0 or greater

[3] = system: hairless mice (HR-1); assay: Inhibiting effect on rough skin induced by oleic acid application (transepidermal water loss); type: in vivo, mouse; design: ΔTEWL value: unit not given here; settings: for rough skin preventing/ameliorating effect (ΔTEWL value versus control aqueous solution): in words, summary of Table 3; for ΔTEWL value: average of four mice, 3 days after 10 mass % oleic acid, control 12.0, increase = rough skin worse
Protocol: In order to investigate the inhibiting effect of β-alanine derivatives and salts thereof on rough skin induced by oleic acid application, the transepidermal water loss (TEWL value) before and after application was measured, the difference was compared with the control (control aqueous solution), and the effect was determined. […] The TEWL was determined using the TM210 TEWA Meter (Courage+Khazaka Electronic GmBH).
100 μL of 10 mass % oleic acid (solvent: ethanol) was applied to the back of hairless mice (HR-1, four mice per group). Then a sample solution (β-alanine derivatives) was applied 100 μL at a time. This procedure was continued for three days. On the following day, the TEWL value of the back was determined and the values of the four animals were averaged.

[4] = system: cheeks of healthy human males; assay: Human pore-shrinking effect (replica of cheek pores, three-dimensional laser scanning microscope); type: in vivo; settings: for pore-shrinking effect: in words, summary of Table 2; for Replica assessment value (average of n = 5): twice a day for one month, pore size rating (1-13) after minus before application, control 0.3
Protocol: An experiment was conducted whereby a sample was applied twice a day for one month to the cheeks of healthy human males in groups of 5 men each. Aqueous solutions (containing 15 mass % of ethanol) of 3 mass % of the β-alanine derivative or a salt thereof were prepared mainly as the evaluation sample. The pH was regulated by hydrochloric acid or sodium hydroxide so as to be 7.0 to 7.5. When the sample solubility was low, the solution was prepared accordingly. The control was an aqueous 15% ethanol solution. The sample aqueous solution and the control aqueous solution were applied to one half of the face at a time.
A replica was collected before and after continuous application, and changes in the shape of the pores at the same site were observed using a three-dimensional laser scanning microscope. The size of the pores was visually evaluated in the 13 steps of 1 through 13 (with the pores becoming larger as the numbers became larger), the difference in the ratings before and after application (after application—before application) was calculated, and the efficacy of each sample was studied using this difference as the replica assessment value.

SMILES | parakeratosis-inhibiting effect [1] | Visual evaluation (average of four animals) ([1]; sample 3 mass %) | Parakeratosis value (average of four animals) ([1]; sample 3 mass %) | sensory irritation [2] | Evaluation (sensory irritation, class of average rating) ([2]; sample 3 mass %) | rough skin preventing/ameliorating effect (ΔTEWL value versus control aqueous solution) [3] | ΔTEWL value ([3]; sample 3 mass %) | pore-shrinking effect [4] | Replica assessment value (average of n = 5) ([4]; sample 3 mass %) | Visual evaluation (average of four animals) ([1]; sample 1.5 mass %) | Parakeratosis value (average of four animals) ([1]; sample 1.5 mass %) | Evaluation (sensory irritation, class of average rating) ([2]; sample 1.5 mass %) | ΔTEWL value ([3]; sample 1.5 mass %) | Replica assessment value (average of n = 5) ([4]; sample 1.0 mass %)
O=C(O)CCN1CCCCC1 [3-(1′-piperidine)-propionate, 3-(1′-piperidine)-propionic acid] | reduced the parakeratosis value | 1.4 | 1.4 | no problem of sensory irritation | A (average rating of less than 0.2) | effect was seen | 5.5 | effect was seen | −1.2 | – | – | – | – | –
N=C(N)NCCC(=O)O [3-guanidinopropionic acid, reference compound] | effect was not seen | 2.1 | 2.1 | – | – | no effect was seen | 12.3 | – | – | – | – | – | – | –
NC(=O)NCCC(=O)O [3-ureidopropionic acid, reference compound] | effect was not seen | 2.0 | 2.2 | – | – | no effect was seen | 11.9 | – | – | – | – | – | – | –
COc1ccccc1C(=O)NCCC(=O)O [N-(2′-methoxybenzoyl)-β-alanine] | reduced the parakeratosis value | 1.1 | 1.1 | no problem of sensory irritation | A (average rating of less than 0.2) | effect was seen | 7.0 | effect was seen | −0.9 | – | – | – | – | –
O=C(O)CCNc1ccccn1 [N-(2′-pyridyl)-β-alanine] | reduced the parakeratosis value | 1.4 | 1.3 | no problem of sensory irritation | A (average rating of less than 0.2) | effect was seen | 5.5 | effect was seen | −0.8 | – | – | – | – | –
COc1cc(C(=O)NCCC(=O)O)cc(OC)c1OC [N-(3′,4′,5′-trimethoxybenzoyl)-β-alanine] | reduced the parakeratosis value | 1.1 | 1.1 | no problem of sensory irritation | A (average rating of less than 0.2) | effect was seen | 6.9 | effect was seen | −0.6 | – | – | – | – | –
COc1cccc(C(=O)NCCC(=O)O)c1 [N-(3′-methoxybenzoyl)-β-alanine] | reduced the parakeratosis value | 1.2 | 1.2 | no problem of sensory irritation | A (average rating of less than 0.2) | effect was seen | 6.9 | effect was seen | −1.0 | – | – | – | – | –
COc1ccc(C(=O)NCCC(=O)O)cc1 [N-(4′-methoxybenzoyl)-β-alanine] | reduced the parakeratosis value | – | – | no problem of sensory irritation | – | effect was seen | – | effect was seen | – | 1.2 | 1.1 | A (average rating of less than 0.2) | 5.7 | −1.2
CC(=O)NCCC(=O)O [N-acetyl-β-alanine, reference compound] | effect was not seen | 1.8 | 1.7 | – | – | no effect was seen | 12.1 | – | – | – | – | – | – | –
O=C(O)CCNS(=O)(=O)c1ccccc1 [N-benzenesulfonyl-β-alanine] | reduced the parakeratosis value | 1.1 | 1.2 | no problem of sensory irritation | A (average rating of less than 0.2) | effect was seen | 5.4 | effect was seen | −0.7 | – | – | – | – | –
O=C(O)CCNC(=O)c1ccccc1 [N-benzoyl-β-alanine] | reduced the parakeratosis value | 1.1 | 1.1 | no problem of sensory irritation | A (average rating of less than 0.2) | effect was seen | 4.0 | effect was seen | – | – | – | – | – | −1.5
O=C(O)CCNCc1ccccc1 [N-benzyl-β-alanine] | reduced the parakeratosis value | 1.2 | 1.2 | no problem of sensory irritation | A (average rating of less than 0.2) | effect was seen | 8.9 | effect was seen | −0.8 | – | – | – | – | –
CN(CCC(=O)O)C1CCCCC1 [N-cyclohexyl-N-methyl-β-alanine] | reduced the parakeratosis value | 1.4 | 1.4 | no problem of sensory irritation | A (average rating of less than 0.2) | effect was seen | 5.5 | effect was seen | −0.8 | – | – | – | – | –
C[C@H](N)C(=O)O [alanine, reference compound] | – | – | – | strong sensory irritation | D (average rating of 2.0 or greater) | – | – | – | – | – | – | – | – | –
